Key:
Type in all cases: cell-based
[1] = target: T1, 17β-hydroxysteroid dehydrogenase type 2 (17β-HSD type 2) (Homo sapiens, UniProt P37059); experiment: Inhibition of 17β-HSD type 2 in MCF-7 cells stably expressing the isoenzyme (tritium labeled estradiol conversion, HPLC); conditions: MCF7, MCF-7 cells expressing 17β-HSD type 2, 2 nM tritium labeled estradiol; for inhibition at 1 µM: 1 μM test compound, read-out: % Inhibition HSD2 1 μM; for inhibition at 10 µM: 10 μM test compound, read-out: % Inhibition HSD2 10 μM
T1 construct: expressed in transfected cells; host or cells: MCF-7
T1 sequence (P37059 1-387): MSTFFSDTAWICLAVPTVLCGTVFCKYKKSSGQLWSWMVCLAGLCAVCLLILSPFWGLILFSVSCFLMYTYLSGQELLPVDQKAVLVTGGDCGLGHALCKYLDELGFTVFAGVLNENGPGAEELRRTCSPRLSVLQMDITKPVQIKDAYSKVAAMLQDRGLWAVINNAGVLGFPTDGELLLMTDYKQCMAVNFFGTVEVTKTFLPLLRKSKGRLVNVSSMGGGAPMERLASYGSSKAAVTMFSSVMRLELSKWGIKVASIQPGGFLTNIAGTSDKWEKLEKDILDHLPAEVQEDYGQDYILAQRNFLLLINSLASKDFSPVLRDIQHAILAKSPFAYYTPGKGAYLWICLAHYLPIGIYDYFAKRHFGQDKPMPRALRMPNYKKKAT
Summary of the method: (§1)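 Compounds are tested at two concentrations on MCF-7 cells carrying a single 17β-HSD isoenzyme, with 2 nM tritiated estrone, estradiol or androstenedione as type 1, 2 or 3 substrate. Percent inhibition reflects lower conversion relative to a compound-free control.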

[2] = target: T2, 17β-hydroxysteroid dehydrogenase type 1 (17β-HSD type 1) (Homo sapiens, UniProt P14061); experiment: Inhibition of 17β-HSD type 1 in MCF-7 cells stably expressing the isoenzyme (tritium labeled estrone conversion, HPLC); conditions: MCF7, MCF-7 cells expressing 17β-HSD type 1, 2 nM tritium labeled estrone; for inhibition at 1 µM: 1 μM test compound, read-out: % Inhibition HSD1 1 μM; for inhibition at 10 µM: 10 μM test compound, read-out: % Inhibition HSD1 10 μM
T2 construct: expressed in transfected cells; host or cells: MCF-7
T2 sequence (P14061 1-328): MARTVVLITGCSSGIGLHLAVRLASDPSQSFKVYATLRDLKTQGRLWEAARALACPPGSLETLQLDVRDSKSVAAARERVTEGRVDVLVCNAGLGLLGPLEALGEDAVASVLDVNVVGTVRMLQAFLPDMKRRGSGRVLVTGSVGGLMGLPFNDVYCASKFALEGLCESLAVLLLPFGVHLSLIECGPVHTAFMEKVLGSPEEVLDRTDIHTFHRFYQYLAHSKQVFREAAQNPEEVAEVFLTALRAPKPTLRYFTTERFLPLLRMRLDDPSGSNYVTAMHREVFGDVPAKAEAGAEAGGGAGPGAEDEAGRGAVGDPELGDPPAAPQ
Summary of the method: as §1

[3] = target: T3, 17β-hydroxysteroid dehydrogenase type 3 (17β-HSD type 3) (Homo sapiens, UniProt P37058); experiment: Inhibition of 17β-HSD type 3 in MCF-7 cells stably expressing the isoenzyme (tritium labeled androstenedione conversion, HPLC); conditions: MCF7, MCF-7 cells expressing 17β-HSD type 3, 2 nM tritium labeled androstenedione; for inhibition at 1 µM: 1 μM test compound, read-out: % Inhibition HSD3 1 μM; for inhibition at 10 µM: 10 μM test compound, read-out: % Inhibition HSD3 10 μM
T3 construct: expressed in transfected cells; host or cells: MCF-7
T3 sequence (P37058 1-310): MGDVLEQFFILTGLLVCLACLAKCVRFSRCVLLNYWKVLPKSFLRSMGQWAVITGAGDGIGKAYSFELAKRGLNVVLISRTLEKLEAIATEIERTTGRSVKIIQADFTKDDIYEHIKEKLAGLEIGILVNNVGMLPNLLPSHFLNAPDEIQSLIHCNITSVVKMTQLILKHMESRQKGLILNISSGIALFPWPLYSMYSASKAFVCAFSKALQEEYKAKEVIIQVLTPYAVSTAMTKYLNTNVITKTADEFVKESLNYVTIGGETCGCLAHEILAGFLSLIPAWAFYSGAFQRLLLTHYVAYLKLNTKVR
Summary of the method: as §1

inhibition at 1 µM [1] [%] | inhibition at 10 µM [1] [%] | inhibition at 1 µM [2] [%] | inhibition at 10 µM [2] [%] | inhibition at 1 µM [3] [%] | inhibition at 10 µM [3] [%] | Compound
18.9 | 26.4 | 25.8 | 32 | 18 | 28 | O=C1CCCc2c1sc1nc(-c3cccs3)n(Cc3ccccc3)c(=O)c21 [No. 62, 3-Benzyl-2-thiophen-2-yl-6,7-dihydro-3H,5H-benzo[4,5]thieno[2,3-d]pyrimidine-4,8-dione]
10.8 | 11.9 | 4.7 | 10.5 | -1.1 | 3.9 | O=C(OCCn1c(-c2cccs2)nc2sc3c(c2c1=O)CCCC3)c1cccs1 [No. 69, Thiophene-2-carboxylic acid 2-(4-oxo-2-thiohen-2-yl-5,6,7,8-tetrahydro-4H-benzo[4,5]thieno[2,3-d]pyrimidin-3-yl)-ethyl ester]
13.1 | 17.9 | 15.3 | 39.4 | -4.1 | 44.2 | O=C(OCCn1c(-c2cccs2)nc2sc3c(c2c1=O)CCCC3=O)c1cccs1 [No. 70, Thiophene-2-carboxylic acid 2-(4,8-dioxo-2-thiohen-2-yl-5,6,7,8-tetrahydro-4H-benzo[4,5]thieno[2,3-d]pyrimidin-3-yl)-ethyl ester]
33.2 | 26.1 | 11.7 | 12.2 | 8.3 | 8.3 | COCCn1c(-c2cccs2)nc2sc3c(c2c1=O)CCCC3 [No. 74, 3-(2-Methoxyethyl)-2-thiophen-2-yl-5,6,7,8-tetrahydro-3H-benzo[4,5]thieno[2,3-d]pyrimidin-4-one]
20.2 | 23.1 | 14.5 | 11.9 | 5 | 17 | COCCn1c(-c2cccs2)nc2sc3c(c2c1=O)CCCC3=O [No. 75, 3-(2-Methoxyethyl)-2-thiophen-2-yl-6,7-dihydro-3H,5H-benzo[4,5]thieno[2,3-d]pyrimidine-4,8-dione]
44.6 | 43.4 | 35.8 | 44.1 | 47.1 | 81.4 | COCCn1c(-c2cccs2)nc2sc3c(c2c1=O)CCC(Br)C3=O (stereo not drawn) [No. 76, 7-Bromo-3-(2-methoxyethyl)-2-thiophen-2-yl-6,7-dihydro-3H,5H-benzo[4,5]thieno[2,3-d]pyrimidine-4,8-dione]

Continued, molecule first:

Compound | inhibition at 1 µM [1] [%] | inhibition at 10 µM [1] [%] | inhibition at 1 µM [2] [%] | inhibition at 10 µM [2] [%] | inhibition at 1 µM [3] [%] | inhibition at 10 µM [3] [%]
O=C1c2sc3nc(-c4ccccc4)n(Cc4ccccc4)c(=O)c3c2CCC1(Br)Br [No. 59, 3-Benzyl-7,7-dibromo-2-phenyl-6,7-dihydro-3H,5H-benzo[4,5]thieno[2,3-d]pyrimidine-4,8-dione] | 36.7 | 40 | 24 | 20.8 | 17.6 | 31.7
O=c1c2c(nc(-c3ccccc3)n1Cc1ccccc1)sc1c(O)cccc12 [No. 60, 3-Benzyl-8-hydroxy-2-phenyl-3H-benzo[4,5]thieno[2,3-d]pyrimidine-4-one] | 44.2 | 76.9 | 16.3 | 36 | 10 | 45.7
O=c1c2c3c(sc2nc(-c2cccs2)n1Cc1ccccc1)CCCC3 [No. 61, 3-Benzyl-2-thiophen-2-yl-5,6,7,8-tetrahydro-3H-benzo[4,5]thieno[2,3-d]pyrimidin-4-one] | 25.7 | 23.8 | 17.7 | 26.2 | 20 | 26.4
O=C1CCCc2c1sc1nc(-c3ccc(Br)s3)n(Cc3ccccc3)c(=O)c21 [No. 64, 3-Benzyl-2-(5-bromothiophen-2-yl)-6,7-dihydro-3H,5H-benzo[4,5]thieno[2,3-d]pyrimidine-4,8-dione] | 15.4 | 16.6 | 15 | 20.7 | 12.1 | 49
O=C1c2sc3nc(-c4ccc(Br)s4)n(Cc4ccccc4)c(=O)c3c2CCC1Br (stereo not drawn) [No. 65, 3-Benzyl-7-bromo-2-(5-bromothiophen-2-yl)-6,7-dihydro-3H,5H-benzo[4,5]thieno[2,3-d]pyrimidine-4,8-dione] | 19.2 | 34.6 | 1.2 | 7.8 | 5 | 38
O=C1c2sc3nc(-c4ccc(Br)s4)n(Cc4ccccc4)c(=O)c3c2CCC1(Br)Br [No. 66, 3-Benzyl-7,7-dibromo-2-(5-bromothiophen-2-yl)-6,7-dihydro-3H,5H-benzo[4,5]thieno[2,3-d]pyrimidine-4,8-dione] | 27 | 37.6 | 7.8 | 8.9 | 0.3 | 7.4
O=c1c2c(nc(-c3cccs3)n1Cc1ccccc1)sc1c(O)cccc12 [No. 67, 3-Benzyl-8-hydroxy-2-thiophen-2-yl-3H-benzo[4,5]thieno[2,3-d]pyrimidine-4-one] | 55.2 | 80.3 | 14.7 | 29.6 | 19.1 | 33.4
O=c1c2c(nc(-c3ccc(Br)s3)n1Cc1ccccc1)sc1c(O)cccc12 [No. 68, 3-Benzyl-2-(5-bromothiophen-2-yl)-8-hydroxy-3H-benzo[4,5]thieno[2,3-d]pyrimidin-4-one] | 15.5 | 49 | 9 | 21.5 | 7.3 | 40.7
O=C(OCCn1c(-c2cccs2)nc2sc3c(c2c1=O)CCC(Br)C3=O)c1cccs1 (stereo not drawn) [No. 71, Thiophene-2-carboxylic acid 2-(7-bromo-4,8-dioxo-2-thiohen-2-yl-5,6,7,8-tetrahydro-4H-benzo[4,5]thieno[2,3-d]pyrimidin-3-yl)-ethyl ester] | 28.9 | 24.5 | 20.7 | 20.8 | 21.9 | 36
O=C(OCCn1c(-c2cccs2)nc2sc3c(c2c1=O)CCC(Br)(Br)C3=O)c1cccs1 [No. 72, Thiophene-2-carboxylic acid 2-(7,7-dibromo-4,8-dioxo-2-thiohen-2-yl-5,6,7,8-tetrahydro-4H-benzo[4,5]thieno[2,3-d]pyrimidin-3-yl)-ethyl ester] | 18 | 53.9 | 15.3 | 15.2 | 16.1 | 64.4
O=C(OCCn1c(-c2cccs2)nc2sc3c(O)cccc3c2c1=O)c1cccs1 [No. 73, Thiophene-2-carboxylic acid 2-(8-hydroxy-4-oxo-2-thiohen-2-yl-4H-benzo[4,5]thieno[2,3-d]pyrimidin-3-yl)-ethyl ester] | 58.3 | 90.5 | 26.8 | 32.8 | 37.9 | 82.6

— US7524853B2 (Solvay Pharmaceuticals B.V., priority 2003, dated 2009)
